Data: US20260166159A1, “KRAS G12D DEGRADATION AGENT, AND PREPARATION METHOD AND USE THEREFOR” (LEADINGTAC PHARMACEUTICAL (SHAOXING) CO., LTD., priority 2022, published 2026)

Experiments:
Type in all cases: cell-based
[1] = molecular target: T1, KRAS-G12D (Homo sapiens, UniProt P01116, G12D); assay: KRAS-G12D degradation assay (Western Blot), A-427 cells; conditions: A427 cells, 24 h; for Dmax: A-427
T1 construct: endogenous in cells; host or cells: A-427 (ATCC), AGS, AsPc-1, Panc 04.03
Experimental: The degradation effects of the compounds on KRAS-G12D were investigated on KRAS G12D mutant human lung cancer cell A-427 (ATCC), KRAS G12D mutant human gastric cancer cell AGS, KRAS G12D mutant human metastatic pancreatic cancer cell AsPc-1, and KRAS G12D mutant human pancreatic adenocarcinoma cell Panc 04.03. The specific procedures were as follows: 0.95 mL of cells were seeded into each well of a 24-well cell culture plate to achieve a cell density of 5×10^5 cells/well; and the cell plate was incubated in an incubator at 37° C. with 5% CO2 overnight. Then 50 μL of the compound solution after dilution was added to each of the wells with the corresponding cells, so that the final concentration of the compound was in a range of 0.03-3000 nM. The final concentration of DMSO was 0.25%. After the compounds were added, the cell plate was incubated in the incubator at 37° C. with 5% CO2 for 24 h. The culture medium in the 24-well cell culture plate was removed, and the plate was washed twice with 1×PBS (KeyGEN). 120 μL of RIPA (strong) lysis buffer (Beyotime) supplemented with 1 mM phenylmethylsulfonyl fluoride, a protease inhibitor mixture (Beyotime), and a protease phosphatase inhibitor mixture (Beyotime) was added to lyse adherent A-427 cells at the bottom of the cell culture plate. After the plate was left to stand on ice for 30 min, the protein lysate in each well was transferred to a 1.5 mL centrifuge tube and centrifuged at 15000 g for 20 min at 4° C. The cell lysate supernatants after centrifugation were cryopreserved in a refrigerator at −80° C. for later use.
After the samples of the cell lysate supernatants that had been prepared were thawed from the refrigerator at −80° C., the total protein concentrations of the cell lysates were determined using a BCA protein quantification kit (Tiangen). The total protein concentrations of the samples were then adjusted to 0.5 μg/μL with PBS and 5×SDS-PAGE protein loading buffer (Beyotime), and the samples were incubated in a water bath at 100° C. for 15 min. The samples were then incubated in an ice bath for 5 min and centrifuged at 14000 g for 1 min at 4° C., and the supernatants were mixed well as loading samples for the Western Blot assay. The samples were loaded into wells of a 10% precast gel (KeyGEN) with a loading volume of 10 μL (total protein: 5 μg), a sufficient Tris-MOPS-SDS running buffer (Adamas) was added, and then electrophoresis was performed at a constant voltage of 120 V for 55 min. After the electrophoresis, the proteins on the gel were transferred to PVDF membranes at a constant current of 250 mA for 55 min. After the membrane transfer, the PVDF membranes were incubated in 1× Quick Block blocking buffer (Beyotime) at room temperature for 30 min. After the blocking, the PVDF membranes were separately incubated at 4° C. overnight with the KRAS antibody (Abcam) diluted in a ratio of 1:1000 and the […] antibody (Abcam) diluted in a ratio of 1:2000 in 5% BSA as the diluent, and then washed with 1×TBST buffer (2.4 g of Tris, 8.8 g of NaCl, 1.5 mL of Tween 20, with pH adjusted to 7.4, with the volume brought to 1 L) 3 times for 10 min/time. The membranes were incubated with a secondary antibody (Abcam) diluted in 5% BSA at room temperature for 2 h, and then washed with 1×TBST buffer 3 times for 10 min/time. Finally, the membranes were incubated with Clarity Western ECL Substrate (BIO-RAD) for 5 min for luminescence and color development, and a ChemiScope 6200 Touch chemiluminescence imaging system (Clinx) was used for color development and protein mapping. Gray value analysis of the protein maps was performed using the chemiluminescence analysis software (Clinx). The gray correction value for each sample was calculated using the formula: gray correction value=(gray value of target protein/gray value of corresponding internal reference)×10^3. Then degradation rates were calculated by comparison with the gray correction value of the control group. […]

[2] = tested on: KRAS G12D mutant human lung cancer cell A427; assay: 3D cell proliferation inhibition assay, A427; conditions: A-427, 168 h, A427, 7 days, CTG
Description: (§1) The inhibitory effects of the compounds on 3D cell proliferation were investigated on KRAS G12D mutant human lung cancer cell A427, KRAS G12D mutant human gastric cancer cell AGS, KRAS G12D mutant human metastatic pancreatic cancer cell AsPc-1, KRAS G12D mutant human pancreatic cancer cell Panc 04.03, KRAS G12D mutant human pancreatic cancer cell HPAC, KRAS G12V mutant human lung squamous cell carcinoma cell SW900, and KRAS WT human gastric cancer cell MKN1. The specific procedures were as follows:
(§2) 10 μL of each compound solution diluted in a gradient was added to corresponding wells of a 96-well low-adsorption microplate (PerkinElmer), so that the final concentrations of the test compounds in the reaction system were in a range of 10000-0.026 nM. The final concentration of DMSO was 0.2%. Then 90 µL of cells were correspondingly seeded into each well to achieve a cell density of 5×10^2 cells/well (the cell density of SW900 was 5×10^1 cells/well, and the cell density of MKN1 was 1×10^3 cells/well). In addition to test wells for the test compounds, both a DMSO control well and a medium control well were set, with the DMSO control well containing DMSO and cells and the medium well containing only a medium. After the sample loading, the 96-well low-adsorption microplate was incubated in an incubator at 37° C. with 5% carbon dioxide for 7 days. After 7 days, the microplate was taken out, and 100 μL of CTG reagent (Promega) was added to each well. The plate was incubated at room temperature for 60 min and read on a microplate reader EnVision by the chemiluminescence program. The inhibition rates of the compounds at each concentration were calculated using the formula for the percentage inhibition of cell proliferation: inhibition rate %=(mean value of DMSO control group−single concentration reading value of compound)/(mean value of DMSO control group−mean value of medium control group)×100. Then non-linear curve fittings for logarithmic concentration-inhibition rate were performed by GraphPad Prism 8, and the IC50 values of the compounds were obtained (Table 5).

[3] = tested on: KRAS G12D mutant human gastric cancer cell AGS; assay: 3D cell proliferation inhibition assay, AGS; conditions: 168 h, 7 days, CTG
Description: as §1, §2

T1 sequence (P01116 1-188 isoform P01116-2 G12D): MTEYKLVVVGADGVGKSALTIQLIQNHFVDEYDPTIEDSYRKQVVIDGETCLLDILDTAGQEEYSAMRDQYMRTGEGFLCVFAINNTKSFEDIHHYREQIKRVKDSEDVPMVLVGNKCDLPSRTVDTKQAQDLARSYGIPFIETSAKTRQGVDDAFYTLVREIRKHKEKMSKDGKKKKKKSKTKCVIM

SMILES | DC50 ([1]; class symbols) | Dmax ([1]; class symbols) | IC50 ([2]; class symbols) | IC50 ([3]; class symbols) | DC50 ([1]; numeric values) | Dmax ([1]; numeric values) | IC50 ([2]; numeric values) | IC50 ([3]; numeric values)
CCc1cccc2cc(O)cc(-c3ncc4c(N5CC6CCC(C5)N6)nc(NCC5(CN6CCN(CC7CCC8(CC7)CCN(C(=O)c7ccc(Cl)c(N9CCC(=O)NC9=O)c7)CC8)CC6)CC5)nc4c3F)c12 [Example 47, 1-(5-(9-((4-((1-(((4-(3,8-diazabicyclo[3.2.1]octan-3-yl)-7-(8-ethyl-3-hydroxynaphthalen-1-yl)-8-fluoropyrido[4,3-d]pyrimidin-2-yl)amino)methyl)cyclopropyl)methyl)piperazin-1-yl)methyl)-3-azaspiro [5.5]undecane-3-carbonyl)-2-chlorophenyl)dihydropyrimidine-2,4(1H,3H)-dione] | 100 to 500 nM | 50 to 80% | 50 to 100 nM | 50 to 100 nM |  |  |  | 
CCc1cccc2cc(O)cc(-c3ccc4c(N5CC6CCC(C5)N6)nc(OCC5(CN6CCN(CC7CCC8(CC7)CCN(C(=O)c7ccc(Cl)c(N9CCC(=O)NC9=O)c7)CC8)CC6)CC5)nc4c3F)c12 [Example 62, 1-(5-(9-((4-((1-(((4-(3,8-diazabicyclo[3.2.1]octan-3-yl)-7-(8-ethyl-3-hydroxynaphthalen-1-yl)-8-fluoroquinazolin-2-yl)oxy)methyl)cyclopropyl)methyl)piperazin-1-yl)methyl)-3-azaspiro[5.5]undecane-3-carbonyl)-2-chlorophenyl)dihydropyrimidine-2,4(1H,3H)-dione] |  |  |  |  | 15.8 nM | 94.8% | 13.1 nM | 4.98 nM
CCc1c(F)ccc2cc(O)cc(-c3ccc4c(N5CC6CCC(C5)N6)nc(OCC5(CN6CCN(CC7CCC8(CC7)CCN(C(=O)c7ccc(Cl)c(N9CCC(=O)NC9=O)c7)CC8)CC6)CC5)nc4c3F)c12 [Example 74, 1-(5-(9-((4-((1-(((4-(3,8-diazabicyclo[3.2.1]octan-3-yl)-7-(8-ethyl-7-fluoro-3-hydroxynaphthalen-1-yl)-8-fluoroquinazolin-2-yl)oxy)methyl)cyclopropyl)methyl)piperazin-1-yl)methyl)-3-azaspiro[5.5]undecane-3-carbonyl)-2-chlorophenyl)dihydropyrimidine-2,4(1H,3H)-dione] |  |  |  |  | 38.1 nM | 77% | 31.6 nM | 15.7 nM
C#Cc1c(F)ccc2cc(O)cc(-c3ncc4c(N5CC6CCC(C5)N6)nc(OCC5(CN6CCN(CC7CCC8(CC7)CCN(C(=O)c7ccc(F)c(N9CCC(=O)NC9=O)c7)CC8)CC6)CC5)nc4c3F)c12 [Example 48, 1-(5-(9-((4-((1-(((4-(3,8-diazabicyclo[3.2.1]octan-3-yl)-7-(8-ethynyl-7-fluoro-3-hydroxynaphthalen-1-yl)-8-fluoropyrido[4,3-d]pyrimidin-2-yl)oxy)methyl)cyclopropyl)methyl)piperazin-1-yl)methyl)-3-azaspiro[5.5]undecane-3-carbonyl)-2-fluorophenyl)dihydropyrimidine-2,4(1H,3H)-dione] | ≤ 50 nM | 80 to 100% | ≤ 50 nM | ≤ 50 nM |  |  |  | 
C#Cc1c(F)ccc2cc(O)cc(-c3ncc4c(N5CC6CCC(C5)N6)nc(OCC5(CN6CCN(CC7CCC8(CC7)CCN(C(=O)c7ccc(OC(F)(F)F)c(N9CCC(=O)NC9=O)c7)CC8)CC6)CC5)nc4c3F)c12 [Example 39, 1-(5-(9-((4-((1-(((4-(3,8-diazabicyclo[3.2.1]octan-3-yl)-7-(8-ethynyl-7-fluoro-3-hydroxynaphthalen-1-yl)-8-fluoropyrido[4,3-d]pyrimidin-2-yl)oxy)methyl)cyclopropyl)methyl)piperazin-1-yl)methyl)-3-azaspiro[5.5]undecane-3-carbonyl)-2-(trifluoromethoxy)phenyl)dihydropyrimidine-2,4(1H,3H)-dione] | ≤ 50 nM | 50 to 80% | 100 to 500 nM | ≤ 50 nM |  |  |  | 
